Experimental data as given in patent US20200390128A1 (Lennham Pharmaceuticals, Inc., priority 2019, published 2020).
Read-outs that look alike come from different tables or passages of the source.

Key:
[1] = in vivo; conditions: male, Sprague-Dawley, rat, plasma, po, 2 mg/kg
Protocol: (§1) Serial blood samples were collected from three animals per group per timepoint prior to dosing and at 0.25, 0.5, 1, 2, 3 4, 6, 8, 10, 12, and 14-hours post dose.
(§2) Animals were fasted overnight prior to dose administration. Water was provided ad libitum. Food was returned after the collection of the 4-hour samples.
(§3) Doses (rounded to the nearest 0.001 mL) were calculated based on the pretreatment body weight (kg) and a dose volume of 10 mL/kg.
(§4) Serial blood samples (˜300 μL) were collected from three animals per group per timepoint into tubes containing sodium heparin prior to dosing and at 0.25, 0.5, 1, 2, 3, 4, 6, 8, 10, 12, and 14-hours post dose. […] Blood samples were stored on wet ice until being processed for plasma via centrifugation (3500 g for 10 minutes at 5° C.) within 30 minutes of collection.
(§5) The concentration-time data were analyzed to fit an extra-vascular (oral gavage) dosing plasma analysis model (200) using the software WinNonlin Phoenix version 6.3 (Pharsight).
(§6) Half-lives are reported if the correlation for the regression line, as measured by r squared, is ≥0.9, when rounded.

[2] = Brain concentrations and brain pharmacokinetics after a single oral (gavage) dose in fasted male Sprague-Dawley rats, LC-MS/MS; assay type: in vivo; conditions: for measurable brain concentrations: after 2 mg/kg oral; for concentration at 1 h: 1 hour post dose; for concentration at 4 h: 4 hour post dose; for concentration at 14 h: 14 hour post dose
Protocol: Water was provided ad libitum.
Immediately after the 1, 4, 8 and 14-hour blood collections, three animals/group were euthanized and the brain was dissected out of each rat. The brains were rinsed with saline and dried, placed in pre-weighed conical tubes, and flash frozen in liquid nitrogen. Brain weights were calculated for each sample.

[3] = Plasma pharmacokinetics after a single oral (gavage) dose in fasted male Sprague-Dawley rats, LC-MS/MS; conditions: for Concentration in plasma, Mean: fasted male Sprague-Dawley rats, n = 3/time point; for measurable plasma concentrations: after 2 mg/kg oral; for AUClast / T 1/2 (terminal half life): fasted male Sprague Dawley rats;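 for all read-outs here: plasma from heparinized blood sampled up to 14 h post dose, three rats per timepoint, parameters by non-compartmental analysis of mean concentration-time data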
Protocol: as §1, §2, §3, §4, §5, §6

[4] = male, Sprague-Dawley, rat, brain, po, 2 mg/kg, oral gavage 2 mg/kg, fasted male Sprague-Dawley rats, n = 3/time point
[5] = male, Sprague-Dawley, rat, brain, po, 2 mg/kg, brain, molecular weight corrected (caffeine values multiplied by 0.956), oral gavage 2 mg/kg, rats, read-out: AUClast,corr
[6] = male, Sprague-Dawley, rat, brain, po, 2 mg/kg, brain, molecular weight corrected (caffeine values multiplied by 0.956), oral gavage 2 mg/kg, rats, read-out: Cmax,corr
[7] = male, Sprague-Dawley, rat, brain, po, 2 mg/kg, brain, oral gavage 2 mg/kg, fasted male Sprague Dawley rats, read-out: AUClast
[8] = male, Sprague-Dawley, rat, brain, po, 2 mg/kg, brain, oral gavage 2 mg/kg, fasted male Sprague Dawley rats, read-out: Cmax
[9] = male, Sprague-Dawley, rat, brain, po, 2 mg/kg, oral dose 2 mg/kg, rats, read-out: AUClast in brain
[10] = rat, brain/plasma, oral gavage 2 mg/kg, fasted male Sprague Dawley rats, read-out: Ratio Brain/Plasma Cmax
[11] = rat, brain, oral gavage 2 mg/kg, fasted male Sprague Dawley rats
[12] = rat, brain, oral gavage 2 mg/kg, fasted male Sprague Dawley rats, read-out: Ratio Brain/Plasma AUClast
[13] = plasma, molecular weight corrected (caffeine values multiplied by 0.956), oral gavage 2 mg/kg, rats
[14] = in words, molecular weight corrected, oral 2 mg/kg, rats

Cn1c(=O)c2c(ncn2C)n(C)c1=O [Caffeine, reference compound]
AUC(0-inf) [1]: 16000 ng·h/mL | AUC(0-t) [1]: 16000 ng·h/mL | Cmax [1]: 2600 ng/mL | Tmax [1]: 1 h | concentration at 0.25 h [1]: 2420 ng/mL | concentration at 0.5 h [1]: 2410 ng/mL | concentration at 1 h [1]: 2640 ng/mL | concentration at 2 h [1]: 2070 ng/mL | concentration at 3 h [1]: 2030 ng/mL | concentration at 4 h [1]: 1820 ng/mL | half-life [1]: 1.9 h | measurable brain concentrations ([2]; in words, rats): detected in all animals evaluated at each time point through 14 hours post dose | concentration at 1 h [2, 4]: 1910 ng/g | concentration at 4 h [2, 4]: 1210 ng/g | concentration at 8 h ([2]; male, Sprague-Dawley, rat, brain, po, 2 mg/kg, 8 hour post dose, oral gavage 2 mg/kg, fasted male Sprague-Dawley rats, n = 3/time point): 553 ng/g | concentration at 14 h [2, 4]: 62.6 ng/g | AUC(0-t) [2, 5]: 10500 ng·h/mL | Cmax [2, 6]: 1820 ng/mL | AUC(0-t) [2, 7]: 11000 ng·h/mL | Cmax [2, 8]: 1900 ng/mL | AUC(0-t) [2, 9]: 11000 ng·h/mL | Kp [2, 10]: 0.73 | AUC(0-inf) [2, 11]: 11000 ng·h/mL | Tmax [2, 11]: 1 h | Kp [2, 12]: 0.69 | Concentration in plasma, Mean ([3]; 8 hour post dose, oral gavage 2 mg/kg): 849 ng/mL | Concentration in plasma, Mean ([3]; 10 hour post dose, oral gavage 2 mg/kg): 344 ng/mL | Concentration in plasma, Mean ([3]; 12 hour post dose, oral gavage 2 mg/kg): 171 ng/mL | Concentration in plasma, Mean ([3]; 14 hour post dose, oral gavage 2 mg/kg): 97.1 ng/mL | measurable plasma concentrations ([3]; in words, rats): detected in all animals evaluated at each time point through 14 hours post dose | AUCinf, corr [3, 13]: 15296 ng·h/mL | AUClast, corr [3, 13]: 15296 ng·h/mL | AUClast ([3]; plasma, oral gavage 2 mg/kg): 16000 ng·h/mL | T 1/2 (terminal half life) ([3]; plasma, oral gavage 2 mg/kg): 1.9 h

[2H]C([2H])([2H])n1c(=O)c2c(ncn2C([2H])([2H])[2H])n(C([2H])([2H])[2H])c1=O [Compound D9-Caffeine, D9-caffeine]
AUC(0-inf) [1]: 27000 ng·h/mL | AUC(0-t) [1]: 22000 ng·h/mL | Cmax [1]: 2400 ng/mL | Tmax [1]: 3 h | concentration at 0.25 h [1]: 1720 ng/mL | concentration at 0.5 h [1]: 1740 ng/mL | concentration at 1 h [1]: 2090 ng/mL | concentration at 2 h [1]: 2340 ng/mL | concentration at 3 h [1]: 2360 ng/mL | concentration at 4 h [1]: 2270 ng/mL | concentration at 6 h [1]: 1790 ng/mL | concentration at 8 h [1]: 1550 ng/mL | concentration at 12 h [1]: 897 ng/mL | concentration at 14 h [1]: 682 ng/mL | half-life [1]: 5 h | total brain exposure (AUClast,corr) higher than caffeine ([2]; brain, molecular weight corrected, oral 2 mg/kg, rats): approximately 52% | measurable brain concentrations ([2]; in words, rats): detected in all animals evaluated at each time point through 14 hours post dose | brain Cmax compared with caffeine [2, 14]: slightly lower | AUC exposure in brain compared with a corresponding dose of caffeine ([2]; in words, oral 2 mg/kg, rats): higher | concentration at 1 h [2, 4]: 1540 ng/g | concentration at 4 h [2, 4]: 1640 ng/g | concentration at 14 h [2, 4]: 463 ng/g | AUC(0-t) [2, 5]: 16000 ng·h/mL | Cmax [2, 6]: 1600 ng/mL | AUC(0-t) [2, 7]: 16000 ng·h/mL | Cmax [2, 8]: 1600 ng/mL | AUC(0-t) [2, 9]: 16000 ng·h/mL | Kp [2, 10]: 0.67 | Tmax [2, 11]: 4 h | Kp [2, 12]: 0.73 | measurable plasma concentrations ([3]; in words, rats): detected in all animals evaluated at each time point through 14 hours post dose | plasma Cmax compared with caffeine [3, 14]: similar | systemic (AUC) exposure in plasma compared with a corresponding dose of caffeine ([3]; in words, oral 2 mg/kg, rats): higher | half-life compared with a corresponding dose of caffeine ([3]; in words, plasma, oral 2 mg/kg, rats): longer | AUCinf, corr [3, 13]: 27000 ng·h/mL | AUClast, corr [3, 13]: 22000 ng·h/mL | Cmax, corr [3, 13]: 2400 ng/mL | total systemic exposure (AUCinf) higher than caffeine ([3]; plasma, molecular weight corrected, oral 2 mg/kg, rats): approximately 77% | AUClast ([3]; plasma, oral gavage 2 mg/kg): 22000 ng·h/mL | T 1/2 (terminal half life) ([3]; plasma, oral gavage 2 mg/kg): 5 h
